Columns and labels:
MycN Protein = biological target: T1, MycN Protein (Homo sapiens, UniProt P04198); assay: Degradation of MycN protein, Western blot band density in cells; format: cell-based; settings: HL-60 or SKNBE2 cells; 6 uL of compound (1 mM) added to 3 mL cells; 6 hours; Western blot band density (ImageJ)
T1 construct: endogenous in cells; host or cells: HL-60 or SKNBE2
T1 sequence (P04198 1-464): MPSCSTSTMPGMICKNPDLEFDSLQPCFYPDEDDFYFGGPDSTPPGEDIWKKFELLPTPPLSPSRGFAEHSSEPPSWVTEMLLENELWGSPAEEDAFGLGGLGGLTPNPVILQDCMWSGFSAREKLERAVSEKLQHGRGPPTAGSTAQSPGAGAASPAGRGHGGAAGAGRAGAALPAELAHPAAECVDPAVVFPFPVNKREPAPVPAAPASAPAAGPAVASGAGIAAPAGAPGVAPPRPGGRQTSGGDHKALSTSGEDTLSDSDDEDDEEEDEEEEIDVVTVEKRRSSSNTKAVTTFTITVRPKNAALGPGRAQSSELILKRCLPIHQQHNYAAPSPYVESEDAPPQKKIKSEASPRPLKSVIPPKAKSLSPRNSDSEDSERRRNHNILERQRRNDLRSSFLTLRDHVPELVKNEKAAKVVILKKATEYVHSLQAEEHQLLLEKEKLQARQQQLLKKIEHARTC
Summary of the method: (§1)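 HL-60 leukemia or SKNBE2 neuroblastoma cells (3×10^6 per well, passages below 40) were exposed for 6 h to compound added from a 1 mM stock. RIPA lysates (25-30 ug protein) were run on SDS-PAGE and immunoblotted for c-Myc or MycN. Band density was quantified from the western images.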

MycC Protein = biological target: T2, MycC Protein (Homo sapiens, UniProt P01106); assay: Degradation of MycC protein, Western blot band density in cells; format: cell-based; settings: HL-60 or SKNBE2 cells; 6 uL of compound (1 mM) added to 3 mL cells; 6 hours; Western blot band density (ImageJ)
T2 construct: endogenous in cells; host or cells: HL-60 or SKNBE2
T2 sequence (P01106 whole entry): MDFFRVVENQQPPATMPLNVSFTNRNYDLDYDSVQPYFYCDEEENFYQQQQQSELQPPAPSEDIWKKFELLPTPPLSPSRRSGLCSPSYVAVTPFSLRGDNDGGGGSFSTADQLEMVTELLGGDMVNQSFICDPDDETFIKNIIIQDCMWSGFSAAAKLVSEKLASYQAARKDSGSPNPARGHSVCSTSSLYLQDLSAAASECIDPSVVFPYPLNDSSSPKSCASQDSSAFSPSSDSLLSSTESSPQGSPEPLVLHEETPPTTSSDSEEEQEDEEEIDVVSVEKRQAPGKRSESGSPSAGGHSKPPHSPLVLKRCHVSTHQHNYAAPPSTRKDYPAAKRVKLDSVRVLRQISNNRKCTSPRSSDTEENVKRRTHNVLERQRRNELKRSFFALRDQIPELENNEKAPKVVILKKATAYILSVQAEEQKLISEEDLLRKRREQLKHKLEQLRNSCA
Summary of the method: as §1

| SMILES | Dmax at 2 µM (MycN Protein) [%] | Dmax at 2 µM (MycC Protein) [%] | % Degradation of MycN (MycN Protein) | % Degradation of MycC (MycC Protein) |
| --- | --- | --- | --- | --- |
| O=C(NC1CCC(Nc2nccc(Nc3cc(C4CCCC4)[nH]n3)n2)CC1)NC1CCN(C2CC2)C1 [Compound 79, 1-((1R,4R)-4-((4-((5-cyclopentyl-1H-pyrazol-3-yl)amino)pyrimidin-2-yl)amino)cyclohexyl)-3-(1-cyclopropylpyrrolidin-3-yl)urea] | < 20 | 20 to 49 | – | – |
| [H]/N=C(\Nc1cccc(C(F)(F)F)c1)N[C@H]1CC[C@H](Nc2nccc(Nc3cc(C4CCCC4)[nH]n3)n2)CC1 [Compound 81, 1-((1R,4R)-4-((4-((5-cyclopentyl-1H-pyrazol-3-yl)amino)pyrimidin-2-yl)amino)cyclohexyl)-3-(3-(trifluoromethyl)phenyl)guanidine] | < 20 | 80 to 100 | – | – |
| C/N=C(\Nc1cccc(C(F)(F)F)c1)N[C@H]1CC[C@H](Nc2nccc(Nc3cc(C4CCCC4)[nH]n3)n2)CC1 [Compound 83] | < 20 | < 20 | – | – |
| FC(F)(F)C/N=C(\NC1CCOCC1)N[C@H]1CC[C@H](Nc2nccc(Nc3cc(C4CCCC4)[nH]n3)n2)CC1 [Compound 84] | < 20 | < 20 | – | – |
| N#Cc1cccc(NC(=N)N[C@H]2CC[C@H](Nc3nccc(Nc4cc(C5CCCC5)[nH]n4)n3)CC2)c1 [Compound 87, 1-(3-cyanophenyl)-3-((1R,4R)-4-((4-((5-cyclopentyl-1H-pyrazol-3-yl)amino)pyrimidin-2-yl)amino)cyclohexyl)guanidine] | – | – | ** (**: degradation 20-49%) | ** (**: degradation 20-49%) |
| O=C(Nc1cccc(C(F)(F)F)c1)N[C@H]1C[C@H](Nc2nccc(Nc3cc(C4CCCC4)[nH]n3)n2)C1 [Compound 96] | 20 to 49 | 20 to 49 | – | – |
| O=C(NC1Cc2ccncc2C1)N[C@H]1CC[C@H](Nc2nccc(Nc3cc(C4CCCC4)[nH]n3)n2)CC1 (stereo partly drawn) [Compound 101, 1-((1R,4R)-4-((4-((5-cyclopentyl-1H-pyrazol-3-yl)amino)pyrimidin-2-yl)amino)cyclohexyl)-3-(6,7-dihydro-5H-cyclopenta[c]pyridin-6-yl)urea] | < 20 | 80 to 100 | – | – |
| CN(c1nccc(Nc2cc(C3CCCC3)[nH]n2)n1)C1CCC(NC(=O)N[C@H]2CCC[C@@H](C(F)(F)F)C2)CC1 (stereo partly drawn) [Compound 121 (Fraction 1), 1-((1R,4S)-4-((4-((5-cyclopentyl-1H-pyrazol-3-yl)amino)pyrimidin-2-yl)(methyl)amino)cyclohexyl)-3-((1S,3R)-3-(trifluoromethyl)cyclohexyl)urea] | – | – | *** (***: degradation 50-79%) | *** (***: degradation 50-79%) |
| CN(c1nccc(Nc2cc(C3CCCC3)[nH]n2)n1)C1CCC(NC(=O)N[C@H]2CCC[C@@H](C(F)(F)F)C2)CC1 (stereo partly drawn) [Compound 121 (Fraction 2), 1-((1R,4S)-4-((4-((5-cyclopentyl-1H-pyrazol-3-yl)amino)pyrimidin-2-yl)(methyl)amino)cyclohexyl)-3-((1S,3R)-3-(trifluoromethyl)cyclohexyl)urea] | – | – | *** (***: degradation 50-79%) | ** (**: degradation 20-49%) |

Now from value to molecule, other results behind:

| Dmax at 2 µM (MycN Protein) [%] | Dmax at 2 µM (MycC Protein) [%] | SMILES | % Degradation of MycN (MycN Protein) | % Degradation of MycC (MycC Protein) |
| --- | --- | --- | --- | --- |
| < 20 | < 20 | O=C(NC1CC(c2ccccc2)C1)N[C@H]1CC[C@H](Nc2nccc(Nc3cc(C4CCOC4)[nH]n3)n2)CC1 (stereo partly drawn) [Compound 102, 1-((1R,3R)-3-phenylcyclobutyl)-3-((1,4R)-4-((4-((5-(tetrahydrofuran-3-yl)1H-pyrazol-3-yl)amino)pyrimidine-2-yl)amino)cyclohexyl)urea] | – | – |
| < 20 | < 20 | Cc1cc(Nc2ccnc(N[C@H]3CC[C@H](NC(=O)NC4CCN(C(=O)C5CC5)CC4)CC3)n2)n[nH]1 [Compound 103, 1-(1-(cyclopropanecarbonyl)piperidin-4-yl)-3-((1R,4R)-4-((4-((5-methyl-1H-pyrazol-3-yl)amino)pyrimidin-2-yl)amino)cyclohexyl)urea] | – | – |
| 20 to 49 | < 20 | Cc1cc(Nc2ccnc(N[C@H]3CC[C@H](NC(=O)N[C@@H]4CCC[C@H](C(F)(F)F)C4)CC3)n2)n[nH]1 [Compound 104, 1-((1R,4R)-4-((4-((5-methyl-1H-pyrazol-3-yl)amino)pyrimidin-2-yl)amino)cyclohexyl)-3-((1R,3S)-3-(trifluoromethyl)cyclohexyl)urea] | – | – |
| < 20 | < 20 | CO[C@H]1c2ccccc2C[C@H]1NC(=O)N[C@H]1CC[C@H](Nc2nccc(Nc3cc(C)[nH]n3)n2)CC1 [Compound 105, 1-((1S,2R)-1-methoxy-2,3-dihydro-1H-inden-2-yl)-3-((1R,4R)-4-((4-((5-methyl-1H-pyrazol-3-yl)amino)pyrimidin-2-yl)amino)cyclohexyl)urea] | – | – |
| < 20 | 50 to 79 | CN1CC(NCc2ccc3c(c2)CC(NC(=O)N[C@H]2CC[C@H](Nc4nccc(Nc5cc(C6CCCC6)[nH]n5)n4)CC2)C3)C1 (some centres unmarked) [Compound 107] | – | – |
| < 20 | < 20 | C/N=C(\Nc1cccc(C(F)(F)F)c1)N[C@H]1CC[C@H](Nc2nccc(Nc3cc(C)[nH]n3)n2)CC1 [Compound 112] | – | – |
| < 20 | < 20 | Cc1cc(Nc2ccnc(N[C@H]3CC[C@H](NC(=O)NC4Cc5ccc(S(C)(=O)=O)cc5C4)CC3)n2)n[nH]1 (some centres unmarked) [Compound 115] | – | – |
| < 20 | < 20 | O=C(N[C@@H]1CCC[C@@H](C(F)(F)F)C1)N[C@H]1CC[C@H](Nc2nccc(Nc3cc(C4CCCC4)[nH]n3)n2)CC1 [Compound 119] | – | – |
| < 20 | < 20 | Cc1cc(Nc2ccnc(N[C@H]3CC[C@H](NC(=O)N[C@@H]4CCC[C@@H](C(F)(F)F)C4)CC3)n2)n[nH]1 [Compound 120] | – | – |
| 80 to 100 | 80 to 100 | CN(c1nccc(Nc2cc(C3CC3)[nH]n2)n1)[C@H]1CC[C@H](NC(=O)NC2Cc3ccc(C#N)cc3C2)CC1 (stereo partly drawn) [Compound 142, 1-(5-cyano-2,3-dihydro-1H-inden-2-yl)-3-((1R,4R)-4-((4-((5-cyclopropyl-1H-pyrazol-3-yl)amino)pyrimidin-2-yl)(methyl)amino)cyclohexyl)urea] | – | – |
| 50 to 79 | 50 to 79 | CN(C(=O)NC1Cc2ccc(C#N)cc2C1)[C@H]1CC[C@H](N(C)c2nccc(Nc3cc(C4CCCC4)[nH]n3)n2)CC1 (stereo partly drawn) [Compound 143, 3-(5-cyano-2,3-dihydro-1H-inden-2-yl)-1-((1R,4R)-4-((4-((5-cyclopentyl-1H-pyrazol-3-yl)amino)pyrimidin-2-yl)(methyl)amino)cyclohexyl)-1-methylurea] | – | – |
| 50 to 79 | 80 to 100 | CN(c1nccc(Nc2cc(C3CCC3)[nH]n2)n1)[C@H]1CC[C@H](NC(=O)NC2Cc3ccc(C#N)cc3C2)CC1 (stereo partly drawn) [Compound 144, 1-(5-cyano-2,3-dihydro-1H-inden-2-yl)-3-((1R,4R)-4-((4-((5-cyclobutyl-1H-pyrazol-3-yl)amino)pyrimidin-2-yl)(methyl)amino)cyclohexyl)urea] | – | – |
| 80 to 100 | 50 to 79 | CN(c1nccc(Nc2cc(C3CC(F)(F)C3)[nH]n2)n1)[C@H]1CC[C@H](NC(=O)NC2Cc3ccc(C#N)cc3C2)CC1 (stereo partly drawn) [Compound 145, 1-(5-cyano-2,3-dihydro-1H-inden-2-yl)-3-((1R,4R)-4-((4-((5-(3,3-difluorocyclobutyl)-1H-pyrazol-3-yl)amino)pyrimidin-2-yl)(methyl)amino)cyclohexyl)urea] | – | – |

Source: patent US20210369710A1, “MODULATORS OF MYC FAMILY PROTO-ONCOGENE PROTEIN” (Nalo Therapeutics, priority 2019, published 2021)
